Source: ChEMBL document CHEMBL5316329, “Structure-Based Optimization of 2,4,5-Trisubstituted Pyrimidines as Potent HIV-1 Non-Nucleoside Reverse Transcriptase Inhibitors: Exploiting the Tolerant Regions of the Non-Nucleoside Reverse Transcriptase Inhibitors' Binding Pocket” (J Med Chem, 2023)

Test system: Human immunodeficiency virus 1
Experiment: Antiviral activity against wild-type HIV-1 IIIB infected in human MT4 cells assessed as virus-induced cytopathicity treated for 5 days by MTT assay
Type: functional, organism-based
Conditions: Human immunodeficiency virus 1, IIIB, MT4, 120 h
In the case of `Cc1cc(/C=C/C#N)cc(C)c1Oc1nc(NC2CCN(Cc3ccc(C(N)=O)cc3)CC2)ncc1-c1cccc(N)c1`, the EC50 is reported as 5.66 nM. In the case of `Cc1cc(/C=C/C#N)cc(C)c1Oc1nc(NC2CCN(Cc3ccc(C(N)=O)cc3)CC2)ncc1-c1cccc(O)c1`, the EC50 is reported as 4.62 nM. For `Cc1cc(/C=C/C#N)cc(C)c1Cc1nc(NC2CCN(Cc3ccc(C(N)=O)cc3)CC2)ncc1-c1cnc(N)nc1`, the EC50 was 6.82 nM. For `Cc1cc(/C=C/C#N)cc(C)c1Oc1nc(NC2CCN(Cc3ccc(C(N)=O)cc3)CC2)ncc1-c1cccc(F)c1`, the EC50 was 6.11 nM. Compound `Cc1cc(/C=C/C#N)cc(C)c1Oc1nc(NC2CCN(Cc3ccc(S(N)(=O)=O)cc3)CC2)ncc1-c1cccc(F)c1` has an EC50 of 9.55 nM. Compound `Cc1cc(/C=C/C#N)cc(C)c1Oc1nc(NC2CCN(Cc3ccc(S(N)(=O)=O)cc3)CC2)ncc1-c1ccc2c(c1)OCO2` has an EC50 of 5.48 nM.

Test system: Human immunodeficiency virus 1
Experiment: Antiviral activity against NNRTI-resistant HIV-1 RES056 infected in human MT4 cells assessed as virus-induced cytopathicity treated for 5 days by MTT assay
Type: functional, organism-based
Conditions: Human immunodeficiency virus 1, RES056, MT4, 120 h
With `Cc1cc(/C=C/C#N)cc(C)c1Oc1nc(NC2CCN(Cc3ccc(C(N)=O)cc3)CC2)ncc1-c1cccc(N)c1` the EC50 was 22.4 nM. Compound `Cc1cc(/C=C/C#N)cc(C)c1Oc1nc(NC2CCN(Cc3ccc(C(N)=O)cc3)CC2)ncc1-c1cccc(O)c1` has an EC50 of 35.2 nM. In the case of `Cc1cc(/C=C/C#N)cc(C)c1Cc1nc(NC2CCN(Cc3ccc(C(N)=O)cc3)CC2)ncc1-c1cnc(N)nc1`, the EC50 is reported as 68.6 nM. Work on `Cc1cc(/C=C/C#N)cc(C)c1Oc1nc(NC2CCN(Cc3ccc(C(N)=O)cc3)CC2)ncc1-c1cccc(F)c1` yielded an EC50 of 113 nM. `Cc1cc(/C=C/C#N)cc(C)c1Oc1nc(NC2CCN(Cc3ccc(S(N)(=O)=O)cc3)CC2)ncc1-c1cccc(F)c1` showed an EC50 of 132 nM. Work on `Cc1cc(/C=C/C#N)cc(C)c1Oc1nc(NC2CCN(Cc3ccc(S(N)(=O)=O)cc3)CC2)ncc1-c1ccc2c(c1)OCO2` yielded an EC50 of 47 nM.

Test system: not listed separately
Experiment: Cytotoxicity against human MT4 cells assessed as reduction in cell viability treated for 5 days by MTT assay
Type: toxicity, cell-based
Conditions: time 5 day
`Cc1cc(/C=C/C#N)cc(C)c1Oc1nc(NC2CCN(Cc3ccc(C(N)=O)cc3)CC2)ncc1-c1cccc(N)c1` showed a CC50 at 120 h of 8370 nM. For `Cc1cc(/C=C/C#N)cc(C)c1Oc1nc(NC2CCN(Cc3ccc(C(N)=O)cc3)CC2)ncc1-c1cccc(O)c1`, the CC50 at 120 h was 36900 nM. With `Cc1cc(/C=C/C#N)cc(C)c1Cc1nc(NC2CCN(Cc3ccc(C(N)=O)cc3)CC2)ncc1-c1cnc(N)nc1` the CC50 at 120 h was 3070 nM. In the case of `Cc1cc(/C=C/C#N)cc(C)c1Oc1nc(NC2CCN(Cc3ccc(C(N)=O)cc3)CC2)ncc1-c1cccc(F)c1`, the CC50 at 120 h is reported as 11300 nM. Work on `Cc1cc(/C=C/C#N)cc(C)c1Oc1nc(NC2CCN(Cc3ccc(S(N)(=O)=O)cc3)CC2)ncc1-c1cccc(F)c1` yielded a CC50 at 120 h of 14200 nM. For `Cc1cc(/C=C/C#N)cc(C)c1Oc1nc(NC2CCN(Cc3ccc(S(N)(=O)=O)cc3)CC2)ncc1-c1ccc2c(c1)OCO2`, the CC50 at 120 h was 6400 nM.

Test system: not listed separately
Experiment: Selectivity index, ratio of CC50 for human MT4 cells to EC50 for wild-type HIV-1 IIIB infected in human MT4 cells
Type: toxicity, cell-based
Conditions: read-out: Selectivity Index
`Cc1cc(/C=C/C#N)cc(C)c1Oc1nc(NC2CCN(Cc3ccc(C(N)=O)cc3)CC2)ncc1-c1cccc(N)c1` showed a selectivity ratio of 1480. For `Cc1cc(/C=C/C#N)cc(C)c1Oc1nc(NC2CCN(Cc3ccc(C(N)=O)cc3)CC2)ncc1-c1cccc(O)c1`, the selectivity ratio was 8000. Work on `Cc1cc(/C=C/C#N)cc(C)c1Cc1nc(NC2CCN(Cc3ccc(C(N)=O)cc3)CC2)ncc1-c1cnc(N)nc1` yielded a selectivity ratio of 451. In the case of `Cc1cc(/C=C/C#N)cc(C)c1Oc1nc(NC2CCN(Cc3ccc(C(N)=O)cc3)CC2)ncc1-c1cccc(F)c1`, the selectivity ratio is reported as 1850. In the case of `Cc1cc(/C=C/C#N)cc(C)c1Oc1nc(NC2CCN(Cc3ccc(S(N)(=O)=O)cc3)CC2)ncc1-c1cccc(F)c1`, the selectivity ratio is reported as 1490. Compound `Cc1cc(/C=C/C#N)cc(C)c1Oc1nc(NC2CCN(Cc3ccc(S(N)(=O)=O)cc3)CC2)ncc1-c1ccc2c(c1)OCO2` has a selectivity ratio of 1170.

Test system: not listed separately
Experiment: Selectivity index, ratio of CC50 for human MT4 cells to EC50 for NNRTI-resistant HIV-1 RES056 infected in human MT4 cells
Type: toxicity, cell-based
Conditions: read-out: Selectivity Index
Work on `Cc1cc(/C=C/C#N)cc(C)c1Oc1nc(NC2CCN(Cc3ccc(C(N)=O)cc3)CC2)ncc1-c1cccc(N)c1` yielded a selectivity ratio of 373. With `Cc1cc(/C=C/C#N)cc(C)c1Oc1nc(NC2CCN(Cc3ccc(C(N)=O)cc3)CC2)ncc1-c1cccc(O)c1` the selectivity ratio was 1050. Work on `Cc1cc(/C=C/C#N)cc(C)c1Cc1nc(NC2CCN(Cc3ccc(C(N)=O)cc3)CC2)ncc1-c1cnc(N)nc1` yielded a selectivity ratio of 45. `Cc1cc(/C=C/C#N)cc(C)c1Oc1nc(NC2CCN(Cc3ccc(C(N)=O)cc3)CC2)ncc1-c1cccc(F)c1` gave a selectivity ratio of 100. `Cc1cc(/C=C/C#N)cc(C)c1Oc1nc(NC2CCN(Cc3ccc(S(N)(=O)=O)cc3)CC2)ncc1-c1cccc(F)c1` gave a selectivity ratio of 108. With `Cc1cc(/C=C/C#N)cc(C)c1Oc1nc(NC2CCN(Cc3ccc(S(N)(=O)=O)cc3)CC2)ncc1-c1ccc2c(c1)OCO2` the selectivity ratio was 136.

Target: Human immunodeficiency virus type 1 reverse transcriptase (Human immunodeficiency virus 1, UniProt Q72547)
Experiment: Inhibition of wild-type HIV-1 reverse transcriptase assessed as inhibition of biotin-dUTP incorporation
Conditions: not given
For `Cc1cc(/C=C/C#N)cc(C)c1Oc1nc(NC2CCN(Cc3ccc(C(N)=O)cc3)CC2)ncc1-c1cccc(N)c1`, the IC50 was 138 nM. Work on `Cc1cc(/C=C/C#N)cc(C)c1Oc1nc(NC2CCN(Cc3ccc(C(N)=O)cc3)CC2)ncc1-c1cccc(O)c1` yielded an IC50 of 88 nM. For `Cc1cc(/C=C/C#N)cc(C)c1Cc1nc(NC2CCN(Cc3ccc(C(N)=O)cc3)CC2)ncc1-c1cnc(N)nc1`, the IC50 was 157 nM. For `Cc1cc(/C=C/C#N)cc(C)c1Oc1nc(NC2CCN(Cc3ccc(C(N)=O)cc3)CC2)ncc1-c1cccc(F)c1`, the IC50 was 163 nM. In the case of `Cc1cc(/C=C/C#N)cc(C)c1Oc1nc(NC2CCN(Cc3ccc(S(N)(=O)=O)cc3)CC2)ncc1-c1cccc(F)c1`, the IC50 is reported as 194 nM. Compound `Cc1cc(/C=C/C#N)cc(C)c1Oc1nc(NC2CCN(Cc3ccc(S(N)(=O)=O)cc3)CC2)ncc1-c1ccc2c(c1)OCO2` has an IC50 of 122 nM.

Test system: Human immunodeficiency virus 1
Experiment: Antiviral activity against HIV-1 harboring L100I mutant infected in human MT4 cells assessed as virus-induced cytopathicity treated for 5 days by MTT assay
Type: functional, organism-based
Conditions: Human immunodeficiency virus 1, MT4, 120 h; read-out: EC50
Work on `Cc1cc(/C=C/C#N)cc(C)c1Oc1nc(NC2CCN(Cc3ccc(C(N)=O)cc3)CC2)ncc1-c1cccc(N)c1` yielded an EC50 of 11 nM. With `Cc1cc(/C=C/C#N)cc(C)c1Oc1nc(NC2CCN(Cc3ccc(C(N)=O)cc3)CC2)ncc1-c1cccc(O)c1` the EC50 was 11.6 nM. `Cc1cc(/C=C/C#N)cc(C)c1Oc1nc(NC2CCN(Cc3ccc(S(N)(=O)=O)cc3)CC2)ncc1-c1ccc2c(c1)OCO2` showed an EC50 of 10.6 nM.

Test system: Human immunodeficiency virus 1
Experiment: Antiviral activity against HIV-1 harboring K103N mutant infected in human MT4 cells assessed as virus-induced cytopathicity treated for 5 days by MTT assay
Type: functional, organism-based
Conditions: Human immunodeficiency virus 1, MT4, 120 h; read-out: EC50
For `Cc1cc(/C=C/C#N)cc(C)c1Oc1nc(NC2CCN(Cc3ccc(C(N)=O)cc3)CC2)ncc1-c1cccc(N)c1`, the EC50 was 5.62 nM. `Cc1cc(/C=C/C#N)cc(C)c1Oc1nc(NC2CCN(Cc3ccc(C(N)=O)cc3)CC2)ncc1-c1cccc(O)c1` showed an EC50 of 5.31 nM. Work on `Cc1cc(/C=C/C#N)cc(C)c1Oc1nc(NC2CCN(Cc3ccc(S(N)(=O)=O)cc3)CC2)ncc1-c1ccc2c(c1)OCO2` yielded an EC50 of 6.3 nM.

Test system: Human immunodeficiency virus 1
Experiment: Antiviral activity against HIV-1 harboring Y181C mutant infected in human MT4 cells assessed as virus-induced cytopathicity treated for 5 days by MTT assay
Type: functional, organism-based
Conditions: Human immunodeficiency virus 1, MT4, 120 h; read-out: EC50
For `Cc1cc(/C=C/C#N)cc(C)c1Oc1nc(NC2CCN(Cc3ccc(C(N)=O)cc3)CC2)ncc1-c1cccc(N)c1`, the EC50 was 10.1 nM. Work on `Cc1cc(/C=C/C#N)cc(C)c1Oc1nc(NC2CCN(Cc3ccc(C(N)=O)cc3)CC2)ncc1-c1cccc(O)c1` yielded an EC50 of 9.7 nM. Work on `Cc1cc(/C=C/C#N)cc(C)c1Oc1nc(NC2CCN(Cc3ccc(S(N)(=O)=O)cc3)CC2)ncc1-c1ccc2c(c1)OCO2` yielded an EC50 of 10.7 nM.

Test system: Human immunodeficiency virus 1
Experiment: Antiviral activity against HIV-1 harboring Y188L mutant infected in human MT4 cells assessed as virus-induced cytopathicity treated for 5 days by MTT assay
Type: functional, organism-based
Conditions: Human immunodeficiency virus 1, MT4, 120 h; read-out: EC50
Compound `Cc1cc(/C=C/C#N)cc(C)c1Oc1nc(NC2CCN(Cc3ccc(C(N)=O)cc3)CC2)ncc1-c1cccc(N)c1` has an EC50 of 51 nM. Work on `Cc1cc(/C=C/C#N)cc(C)c1Oc1nc(NC2CCN(Cc3ccc(C(N)=O)cc3)CC2)ncc1-c1cccc(O)c1` yielded an EC50 of 39.3 nM. `Cc1cc(/C=C/C#N)cc(C)c1Oc1nc(NC2CCN(Cc3ccc(S(N)(=O)=O)cc3)CC2)ncc1-c1ccc2c(c1)OCO2` gave an EC50 of 47.8 nM.

Test system: Human immunodeficiency virus 1
Experiment: Antiviral activity against HIV-1 E138K mutant infected in human MT4 cells assessed as virus-induced cytopathicity treated for 5 days by MTT assay
Type: functional, organism-based
Conditions: Human immunodeficiency virus 1, MT4, 120 h; read-out: EC50
In the case of `Cc1cc(/C=C/C#N)cc(C)c1Oc1nc(NC2CCN(Cc3ccc(C(N)=O)cc3)CC2)ncc1-c1cccc(N)c1`, the EC50 is reported as 9.11 nM. For `Cc1cc(/C=C/C#N)cc(C)c1Oc1nc(NC2CCN(Cc3ccc(C(N)=O)cc3)CC2)ncc1-c1cccc(O)c1`, the EC50 was 21.1 nM. With `Cc1cc(/C=C/C#N)cc(C)c1Oc1nc(NC2CCN(Cc3ccc(S(N)(=O)=O)cc3)CC2)ncc1-c1ccc2c(c1)OCO2` the EC50 was 40.5 nM.

Test system: Human immunodeficiency virus 1
Experiment: Antiviral activity against HIV-1 F227L/V106A mutant infected in human MT4 cells assessed as virus-induced cytopathicity treated for 5 days by MTT assay
Type: functional, organism-based
Conditions: Human immunodeficiency virus 1, MT4, 120 h; read-out: EC50
`Cc1cc(/C=C/C#N)cc(C)c1Oc1nc(NC2CCN(Cc3ccc(C(N)=O)cc3)CC2)ncc1-c1cccc(N)c1` gave an EC50 of 16.6 nM. Work on `Cc1cc(/C=C/C#N)cc(C)c1Oc1nc(NC2CCN(Cc3ccc(C(N)=O)cc3)CC2)ncc1-c1cccc(O)c1` yielded an EC50 of 13.1 nM. Work on `Cc1cc(/C=C/C#N)cc(C)c1Oc1nc(NC2CCN(Cc3ccc(S(N)(=O)=O)cc3)CC2)ncc1-c1ccc2c(c1)OCO2` yielded an EC50 of 35.7 nM.
